Reference: patent US8026219B2, “Antimicrobial linear peptides” (Universitat de Girona, priority 2006, dated 2011)
Residues, ends and D or L forms follow the SMILES beside them. No end group written: not given here. *: point of attachment. Tos = Cc1ccc(S(=O)(=O)*)cc1; Bz = O=C(c1ccccc1)*

What was measured:
[1] = tested on: Erwinia amylovora PMV6076; assay: Minimum inhibitory concentration (MIC), microbial growth by optical density; assay type: cell-based; conditions: 48 h incubation at 25° C., TSB medium
Procedure: (§1) Each experiment was performed twice.

[2] = tested on: Pseudomonas syringae EPS94; assay: as above; assay type: cell-based; conditions: 48 h incubation at 25° C., TSB medium
Procedure: as §1

[3] = tested on: erythrocytes from fresh human blood; conditions: 5% erythrocytes, 1 h at 37° C., relative to 200 μM melittin; for % Haemolysis 50 μM: 50 μM peptide; for % Haemolysis 150 μM: 150 μM peptide; for % Haemolysis 250 μM: 250 μM peptide
Procedure: A description of the methodology used to determine the haemolytic activity is found in Oren et al, Biochemistry, 2000, 39, 6103-6114, and in Raguse et al., J. Am. Chem. Soc., 2002, 124, 12774-12785.
The haemolytic activity of the peptides of the invention was evaluated by determining the release of haemoglobin which is produced on placing in contact a solution of the peptides with a suspension of erythrocytes 5% by volume, from fresh human blood.
The blood was collected aseptically using a Vactainer® K2E system (Belliver, Great Britain) with EDTA and it was stored at 4° C. for a period lower than 2 hours.
The blood was centrifuged at 6000 g for 5 minutes to separate the erythrocytes. There were washed three times with TRIS buffer (10 mM TRIS, 150 mM NaCl, pH 7.2) and they were resuspended in TRIS buffer until obtaining a suspension which contained 10% by volume of erythrocytes.
The peptides were solubilized in TRIS buffer until a final concentration of 100, 300 and 500 μM
The replicas were used for each peptide and concentration.
65 μl of 10% erythrocyte suspension was mixed with 65 μl of the peptide solution in each well of a 96-well plate (Micro-Amp®, Applied Biosystems, USA) (5% by volume of erythrocytes) and the mixture was incubated for 1 h at 37° C. under stirring. In this way, the erythrocyte suspensions were subjected to peptide concentrations of 50, 150 and 250 μM.
Next, the plates were centrifuged at 3500 g during 10 minutes and aliquots were transferred of 80 μl of supernatant to microplates with 100 wells (Bioscreen), which were diluted with 80 μl of milli-Q water.
The degree of haemolysis was determined from the absorbance at 540 nm with a Bioscreen plate reader.
The complete positive haemolysis control was determined in a TRIS buffer solution which contained 200 μM melittin (Sigma-Aldrich, Spain)
The percentage of haemolysis (H) was determined using the following equation: H=100×[Op−Ob)/(Om−Ob)]
Where OP as the optical density measured for a determined peptide concentration, Ob was the optical density of the buffer solution, and Om was the optical density for the positive control with melittin.

[4] = tested on: Xanthomonas vesicatori 2133-2; assay: Minimum inhibitory concentration (MIC), microbial growth by optical density; conditions: 48 h incubation at 25° C., TSB medium
Procedure: All the bacteria were stored at a temperature of −80° C. in Luria-Bertani (LB) medium supplemented with 20% glycerine in volume/volume.
In all cases they were resuspended in sterile water to obtain a suspension adjusted to an absorbance of 0.2 to 60 nm, which approximately corresponds to 10^8 colony forming units.
To determine the minimum inhibitory concentration (MIC), the peptides were solubilized in milli-Q sterile water until a final concentration of 1000 μM and they were filtered through a 0.22 μm pore size filter.
Dilutions of the peptides of the invention were made to obtained solutions at the concentrations of 750, 500, 250, 200, 150, 125, 100, 75, 50 and 25 μM.
20 μl of each dilution were mixed with 20 μl of the suspension of the corresponding bacterial indicator, and 160 μl of the TSB (Trypticase Soy Broth) liquid medium until a total volume of 200 μl in each well of a microplate.
Two replicas were carried out for each strain, concentration and peptide under study.
The positive controls contained water instead of peptide, and the negative controls contained the peptides without the bacterial suspension.
The microbial growth was determined automatically by optical density at 600 nm using the Microbiology Analyser Bioscreen C (Labsystems)
The microplates were incubated at 25° C. for 48 hours with stirring for 20 seconds before measuring the absorbance every hour. Each experiment was performed twice.

Proteinase K = Proteinase K (Parengyodontium album, UniProt P06873); assay: in vitro; conditions: Proteinase K (1 μg/ml), pH 7.6
Chain of Proteinase K (P06873 106-384): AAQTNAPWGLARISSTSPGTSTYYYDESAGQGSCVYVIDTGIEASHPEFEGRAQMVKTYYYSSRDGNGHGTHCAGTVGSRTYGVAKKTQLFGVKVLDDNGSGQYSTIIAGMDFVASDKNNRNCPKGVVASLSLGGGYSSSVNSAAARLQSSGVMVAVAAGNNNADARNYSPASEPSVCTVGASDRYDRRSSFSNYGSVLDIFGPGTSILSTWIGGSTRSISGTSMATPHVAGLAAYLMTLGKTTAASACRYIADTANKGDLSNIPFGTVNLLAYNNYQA
Procedure: The degradation is expressed as the percentage of peptide degraded after a determined time interval calculated from the decrease in the area of the peak of the native peptide by HPLC.
The stability of the peptides of the invention to degradation by proteases is determined by a peptide digestion test by Proteinase K (Sigma-Aldrich Corporation, Madrid, Spain).
A solution of 50 μg/ml of the peptide and 1 μg/ml of Proteinase K in 100 mM TRIS buffer at pH 7.6 was used, at ambient temperature.
The progress of the peptide excision was determined chromatographically at times between 5 and 45 minutes. To do this a reverse phase C18 column was used (Kromasil, 4.6×40 mm; 3.5 μm particle size), and linear gradients from 0.98:0.02 to 0:1 during 7 min performing the detection by absorbance in ultraviolet light at 220 nm.

[5] = listed as peptide described by Cavallarin et al

Compound	range of concentrations including the MIC, E. amylovora [1]	range of concentrations including the MIC, P. syringae [2]	% Haemolysis 50 μM [3]	% Haemolysis 150 μM [3]	% Haemolysis 250 μM [3]	range of concentrations including the MIC, X. vesicatoria [4]	range of concentrations including the MIC, E. amylovora [1, 5]	range of concentrations including the MIC, P. syringae [2, 5]	metabolised at 0.75 h, 50 μg/ml (Proteinase K)	range of concentrations including the MIC, X. vesicatoria [4, 5]
CC[C@H](C)[C@H](NC(=O)[C@H](CCCCN)NC(=O)[C@H](CCCCN)NC(=O)[C@H](Cc1ccccc1)NC(=O)[C@H](CC(C)C)NC(=O)[C@H](CCCCN)NC(=O)[C@@H](N)Cc1ccc(O)cc1)C(=O)N[C@@H](CC(C)C)C(=O)N[C@@H](CCCCN)C(=O)N[C@@H](Cc1ccc(O)cc1)C(=O)N[C@@H](CC(C)C)C(N)=O [BP095]	5 to 7.5 µM	5 to 7.5 µM	7%	50%	76%	2.5 to 5 µM				
LKLFKKILKFL-NH2 [BP081]	2.5 to 5 µM	2.5 to 5 µM	10%	65%	88%	<2.5 µM				
FKLFKKILKFL-NH2 [BP066]	2.5 to 5 µM	5 to 7.5 µM	9%	63%	89%	2.5 to 5 µM				
WKLFKKILKVL-NH2 [Comparative example, reference compound]							over 7.5 μM	over 7.5 μM	100%	over 7.5 μM
CC[C@H](C)[C@H](NC(=O)[C@H](CCCCN)NC(=O)[C@H](CCCCN)NC(=O)[C@H](Cc1ccccc1)NC(=O)[C@H](CC(C)C)NC(=O)[C@H](CCCCN)NC(=O)[C@H](CCCCN)NC(C)=O)C(=O)N[C@@H](CC(C)C)C(=O)N[C@@H](CCCCN)C(=O)N[C@@H](Cc1c[nH]c2ccccc12)C(=O)N[C@@H](CC(C)C)C(N)=O [BP053]	>7.5 µM	5 to 7.5 µM	60%	82%	85%	2.5 to 5 µM				
CC[C@H](C)[C@H](NC(=O)[C@H](CCCCN)NC(=O)[C@H](CCCCN)NC(=O)[C@H](Cc1ccccc1)NC(=O)[C@H](CC(C)C)NC(=O)[C@H](CCCCN)NC(=O)[C@H](CCCCN)NC(=O)c1ccccc1)C(=O)N[C@@H](CC(C)C)C(=O)N[C@@H](CCCCN)C(=O)N[C@@H](Cc1ccc(O)cc1)C(=O)N[C@@H](CC(C)C)C(N)=O [BP103]	7.5 µM	5 to 7.5 µM	42%	83%	80%	<2.5 µM				
CC[C@H](C)[C@H](NC(=O)[C@H](CCCCN)NC(=O)[C@H](CCCCN)NC(=O)[C@H](Cc1ccccc1)NC(=O)[C@H](CC(C)C)NC(=O)[C@H](CCCCN)NC(=O)[C@@H](N)CCCCN)C(=O)N[C@@H](CC(C)C)C(=O)N[C@@H](CCCCN)C(=O)N[C@@H](Cc1ccc(O)cc1)C(=O)N[C@@H](CC(C)C)C(N)=O [BP100]			3%	22%	43%	5 to 7.5 µM			60%	
CC[C@H](C)[C@H](NC(=O)[C@H](CCCCN)NC(=O)[C@H](CCCCN)NC(=O)[C@H](Cc1ccccc1)NC(=O)[C@H](CC(C)C)NC(=O)[C@H](CCCCN)NC(=O)[C@@H](N)Cc1ccccc1)C(=O)N[C@@H](CC(C)C)C(=O)N[C@@H](CCCCN)C(=O)N[C@@H](Cc1ccc(O)cc1)C(=O)N[C@@H](CC(C)C)C(N)=O [BP090]	5 to 7.5 µM	5 to 7.5 µM	11%	57%	84%	2.5 to 5 µM				
YKLFKKILKWL-NH2 [BP047]	5 to 7.5 µM	5 to 7.5 µM	81%	76%	82%	2.5 to 5 µM				
CC[C@H](C)[C@H](NC(=O)[C@H](CCCCN)NC(=O)[C@H](CCCCN)NC(=O)[C@H](Cc1ccccc1)NC(=O)[C@H](CC(C)C)NC(=O)[C@H](CCCCN)NC(=O)[C@@H](N)CCCCN)C(=O)N[C@@H](CC(C)C)C(=O)N[C@@H](CCCCN)C(=O)N[C@@H](Cc1c[nH]c2ccccc12)C(=O)N[C@@H](CC(C)C)C(N)=O [BP052]	2.5 to 5 µM	5 µM	51%	84%	79%	2.5 to 5 µM				
CC[C@H](C)[C@H](NC(=O)[C@H](CCCCN)NC(=O)[C@H](CCCCN)NC(=O)[C@H](Cc1ccccc1)NC(=O)[C@H](CC(C)C)NC(=O)[C@H](CCCCN)NC(=O)[C@@H](N)CC(C)C)C(=O)N[C@@H](CC(C)C)C(=O)N[C@@H](CCCCN)C(=O)N[C@@H](Cc1ccc(O)cc1)C(=O)N[C@@H](CC(C)C)C(N)=O [BP105]	5 µM	5 to 7.5 µM	14%	91%	90%	2.5 to 5 µM				
CC[C@H](C)[C@H](NC(=O)[C@H](CCCCN)NC(=O)[C@H](CCCCN)NC(=O)[C@H](Cc1ccccc1)NC(=O)[C@H](CC(C)C)NC(=O)[C@H](CCCCN)NC(=O)[C@H](Cc1c[nH]c2ccccc12)NS(=O)(=O)c1ccc(C)cc1)C(=O)N[C@@H](CC(C)C)C(=O)N[C@@H](CCCCN)C(=O)N[C@H](C(=O)N[C@@H](CC(C)C)C(N)=O)C(C)C [BP009] (Tos-WKLFKKILKVL-NH2)									100%	
WKLFKKILKWL-NH2 [BP018]	5 to 7.5 µM	5 to 7.5 µM	78%	68%	74%	2.5 µM				
CC[C@H](C)[C@H](NC(=O)[C@H](CCCCN)NC(=O)[C@H](CCCCN)NC(=O)[C@H](Cc1ccccc1)NC(=O)[C@H](CC(C)C)NC(=O)[C@H](CCCCN)NC(=O)[C@H](CCCCN)NC(C)=O)C(=O)N[C@@H](CC(C)C)C(=O)N[C@@H](CCCCN)C(=O)N[C@@H](Cc1ccc(O)cc1)C(=O)N[C@@H](CC(C)C)C(N)=O [BP101]	>7.5 µM	5 to 7.5 µM	4%	31%	62%	2.5 µM				
CC[C@H](C)[C@H](NC(=O)[C@H](CCCCN)NC(=O)[C@H](CCCCN)NC(=O)[C@H](Cc1ccccc1)NC(=O)[C@H](CC(C)C)NC(=O)[C@H](CCCCN)NC(=O)[C@H](CCCCN)NS(=O)(=O)c1ccc(C)cc1)C(=O)N[C@@H](CC(C)C)C(=O)N[C@@H](CCCCN)C(=O)N[C@H](C(=O)N[C@@H](CC(C)C)C(N)=O)C(C)C [BP030]	5 to 7.5 µM	5 to 7.5 µM	25%	70%	80%	5 to 7.5 µM				
Ac-WKLFKKILKVL-NH2 [BP008]									100%	
CC[C@H](C)[C@H](NC(=O)[C@H](CCCCN)NC(=O)[C@H](CCCCN)NC(=O)[C@H](Cc1ccccc1)NC(=O)[C@H](CC(C)C)NC(=O)[C@H](CCCCN)NC(=O)[C@H](Cc1ccc(O)cc1)NC(=O)c1ccccc1)C(=O)N[C@@H](CC(C)C)C(=O)N[C@@H](CCCCN)C(=O)N[C@@H](CCCCN)C(=O)N[C@@H](CC(C)C)C(N)=O [BP122] (Bz-YKLFKKILKKL-NH2)	>7.5 µM	5 to 7.5 µM	32%	78%	96%	2.5 to 5 µM				
